Residues, ends and D or L forms follow the SMILES beside them. *: point of attachment. Cbz = O=C(OCc1ccccc1)*; CH2Cl = ClC*
How the values were obtained:
T^frat cells [1] = experiment: Degranulation (CD107a) in T^frat cells cultured with rCD31 with or without PI3K or ERK1/2 inhibitors; format: cell-based, mouse; settings: rCD31 with inhibitor (100 nM), 24 h
T^frat cells [2] = experiment: Gzm B levels in T^frat cells after NAD repletion or SIRT1 activator; format: cell-based, mouse; settings: NAD (1 mM) or SIRT1 activator (1 or 2 μM), 24 h
Description: (§1) PD1^+CD38^hi and Teff CD8 T cells were generated by our previously reported method^2. In brief, MACS purified (>90%) OT1-CD8 (CD45.1) T cells from mouse spleen were activated either with low-affinity OVA-V peptide or with high-affinity OVA peptide ([…]) in T cell medium supplemented with 30 international units (IU) of IL-2 for 48 hours followed by FACS purification of PD1^+CD38^hi and PD1^+CD38^lo T cells respectively. Various cell surface and intracellular markers as well as level of pro- and anti-inflammatory cytokines, and cytolytic molecules were analyzed by flow cytometry as explained in the next section. In some experiments, CD38 was KD using siRNA for 24 h prior to various marker analysis. Furthermore, in a few experiments, either NAD (1 mM) or SIRT1 activator (1 or 2 μM) were added to the Tfrat cells for 24 h and levels of Gzm B were measured in these cells and in Teff cells by flow cytometry. To determine the role of CD38:CD31 interaction and signaling in Gzm B degranulation, Tfrat cells were cultured with rCD31 (1 or 5 μg) with or without PI3K or ERK1/2 inhibitors (100 nM). After 24 h, degranulation of Gzm B in T^frat cells was measured by CD1071 staining and levels of various signaling molecules by flow cytometry.

[3] = test system: target pMel-1 CD8 T cells; experiment: Co-culture (in vitro cell killing) of PD1+CD38hi or Teff CD8 T cells with target pMel-1 CD8 T cells; annexin V, caspase3/7, live/dead staining; format: cell-based; settings: co-incubation of T^frat and target cells with blocking antibody or inhibitor
Description: For the flow cytometry analysis of lymphocytes of mouse and human origin, 1-2×10^6 cells per sample were stained with the LIVE/DEAD fixable near-IR dead cell stain kit (Invitrogen; catalog no. L10119) followed by fixation and permeabilization. All surface and intracellular markers were stained at the same time in fix and per buffer as per manufacturer's recommendations. For IFN-7 and Gzm B staining, the BD Biosciences Cytofix/Cytoperm (catalog no. 51-2090KZ) and BD Biosciences Perm/Wash (catalog no. 51-2091KZ) buffer sets were used according to the manufacturer's instructions. In a few experiments, variously treated cells were processed for annexin V staining to check the extent of apoptosis. For this, collected cells were stained for annexin V in annexin binding buffer (ABB) (BD Biosciences) for 30 minutes at 4° C. […]
PD1^+CD38^hi and Teff CD8 T cells were co-cultured overnight with FACS-sorted Thy1.1 target pMel-1 CD8^+ T cells (killer to target cell ratio 1:1) that were activated with gp100 peptide (1 μM per 10^6 cells per mL). […] In addition to the annexin V staining, Gzm B levels in the pMel-1 target CD8 or CD4 T cells and […] levels in the Tfrat cells after their co-culture in the presence or absence of anti-CD38/CD31 were measured by flow cytometry. […] Viability of target cells was assessed by FACS analysis using fixable Live/Dead stain.

[4] = test system: Zap70, PI3K, RAC, and ERK in T^frat cells; experiment: Signaling molecules in T^frat cells incubated with rCD31 (Western blotting); format: cell-based, mouse; settings: incubation with rCD31 (1 or 5 μg)
Description: as §1, with “After 24 h, degranulation of Gzm B in T^frat cells was measured by CD1071 staining and levels of various signaling molecules by flow cytometry.” left out

O=C(Nc1ccc2[nH]nc(-c3ccncc3)c2c1)[C@@H]1CCN(CC(=O)N2CCN(c3ccc(-c4ncccn4)cc3)CC2)C1 [ERK inhibitor, SCH772984]
degranulation of Gzm B resulting from CD38:CD31 engagement, measured by CD107a level (T^frat cells [1]): inhibited

NC(=O)c1ccc[n+]([C@@H]2O[C@H](COP(=O)([O-])OP(=O)(O)OC[C@H]3O[C@@H](n4cnc5c(N)ncnc54)[C@H](O)[C@@H]3O)[C@@H](O)[C@H]2O)c1 [NAD]
expression of Gzm B in T^frat (T^frat cells [2]): decrease in the expression of Gzm B

Cl.O=C(Nc1ccccc1-c1cn2c(CN3CCNCC3)csc2n1)c1cnc2ccccc2n1 [SRT1720 HCl]
expression of Gzm B in T^frat (T^frat cells [2]): decrease in the expression of Gzm B

C[C@H](NC(=O)OCc1ccccc1)C(=O)N[C@@H](C)C(=O)N[C@@H](CC(=O)O)C(=O)CCl [Z-AAD-CMK] (Cbz-Ala-Ala-Asp-CH2Cl)
T^frat-mediated apoptosis in target pMel-1 CD8 T cells in presence of the agent (annexin V) [3]: fully abrogated

B1: rCD31: recombinant CD31 protein (3628-PC-050, R&D) (protein)
chain: EENSFTINSIHMESLPSWEVMNGQQLTLECLVDISTTSKSRSQHRVLFYKDDAMVYNVTSREHTESYVIPQARVFHSGKYKCTVMLNNKEKTTIEYEVKVHGVSKPKVTLDKKEVTEGGVVTVNCSLQEEKPPIFFKIEKLEVGTKFVKRRIDKTSNENFVLMEFPIEAQDHVLVFRCQAGILSGFKLQESEPIRSEYVTVQESFSTPKFEIKPPGMIIEGDQLHIRCIVQVTHLVQEFTEIIIQKDKAIVATSKQSSEAVYSVMAMVEYSGHYTCKVESNRISKASSIMVNITELFPKPKLEFSSSRLDQGELLDLSCSVSGTPVANFTIQKEETVLSQYQNFSKIAEESDSGEYSCTAGIGKVVKRSGLVPIQVCEMLSKPSIFHDAKSEIIKGHAIGISCQSENGTAPITYHLMKAKSDFQTLEVTSNDPATFTDKPTRDMEYQCRADNCHSHPAVFSEILRVRVIAPVDEVVISILSSNEVQSGSEMVLRCSVKEGTSPITFQFYKEKEDRPFHQAVVNDTQAFWHNKQASKKQEGQYYCTASNRASSMRTSPRSSTLAVRVFLAPWKK
expression of phosphorylated Zap70, PI3K, RAC, and ERK in T^frat cells [4]: increase in the expression of phosphorylated Zap70, PI3K, RAC, and ERK
